Our source for the IC50 values is EP4775208A1, “USE OF PRMT5 INHIBITOR IN TREATMENT OF TUMORS OR CANCERS” (Apeiron Therapeutics (Hong Kong) Ltd., priority 2023, dated 2025).

Assay [1] has as its system HCT-116 MTAP(-/-) deficient cells. In words: Inhibition of proliferation of HCT-116 MTAP(-/-) deficient cells (Cell-Titer Glo). It counts as cell-based. As to conditions: 8 days. The protocol:
Test 1: Compound's inhibitory activity on proliferation of HCT-116 MTAP(-/-) deficient cells.
Materials and Cells: HCT-116 MTAP(-/-) deficient cells obtained from Kyinno Bio (China); RPMI-1640 medium, fetal bovine serum, and penicillin-streptomycin purchased from Thermo Fisher Scientific (America); 384-well plates from PerkinElmer (America); Cell-Titer Glo assay kit from Promega (America).
Cell Culture: HCT116 MTAP(-/-) deficient cells were cultured in RPMI 1640 medium containing 10% fetal bovine serum and 1% penicillin-streptomycin at 37°C, 5% CO2. Only cells in logarithmic growth phase were used for experiments.
Cell Proliferation Inhibition Assay: The compound's inhibitory activity on HCT-116 MTAP(-/-) deficient cells was assessed using the Cell-Titer Glo assay kit. Adjusting cell concentration, 40 µL was seeded into a 384-well plate and cultured overnight at 37°C, 5% CO2. Each well received 40 nL of the compound, achieving concentrations from 0 to 10,000 nM (starting concentration 10,000 nM, 3-fold dilution, 10 points), with 0.1% DMSO. The cell plate was incubated for 8 days at 37°C, 5% CO2. Cell-Titer Glo reagent (40 µL) was added to measure cell viability.

Assay [2] concerns HCT-116 MTAP wild-type cells. Briefly: Inhibition of proliferation of HCT-116 MTAP wild-type cells (Cell-Titer Glo). It is filed as cell-based. As to conditions: 8 days. Here is the method:
Test 2: Compound's inhibitory activity on proliferation of HCT-116 MTAP wild-type cells.
Materials and Cells: HCT-116 MTAP wild-type cells obtained from Kyinno Bio (China); RPMI-1640 medium, fetal bovine serum, and penicillin-streptomycin purchased from Thermo Fisher Scientific (America); 384-well plates from PerkinElmer (America); Cell-Titer Glo assay kit from Promega (America).
Cell Culture: HCT116 MTAP wild-type cells were cultured in RPMI 1640 medium containing 10% fetal bovine serum and 1% penicillin-streptomycin at 37°C, 5% CO2. Only cells in logarithmic growth phase were used for experiments.
Cell Proliferation Inhibition Assay: The compound's inhibitory activity on HCT-116 MTAP wild-type cells was assessed using the Cell-Titer Glo assay kit. Adjusting cell concentration, 40 µL was seeded into a 384-well plate and cultured overnight at 37°C, 5% CO2. Each well received 40 nL of the compound, achieving concentrations from 0 to 10,000 nM (starting concentration 10,000 nM, 3-fold dilution, 10 points), with 0.1% DMSO. The cell plate was incubated for 8 days at 37°C, 5% CO2. Cell-Titer Glo reagent (40 µL) was added to measure cell viability.

The term IC50 denotes the concentration at which inhibition is half-maximal. High values mean lower potency, low ones higher potency. As for `CN(C(=O)c1cc2c(cc1Cl)nc(N)c1cncn12)[C@@H]1COc2cc(Br)ccc21` [Example 12, (S)-4-amino-N-(6-bromo-2,3-dihydrobenzof uran-3-yl)-7-chloro-N -methylimidazo[1,5-a] quinoxaline-8-carbox amide], the 50% inhibitory concentration (IC50) in assay [1] (Homo sapiens, HCT-116, 192 h) turned out to be 6.1 nM; in assay [2] (Homo sapiens, HCT-116, 192 h) it was 1110 nM.

In the case of `C[C@H]1OC[C@@H](N(C)C(=O)c2ccc3nc(N)c4cncn4c3c2)c2cnc(C(F)(F)F)cc21` [Example 32, 4-amino-N-methyl-N-((1R,4S)-1-methyl-7-(trifluoromethyl)-3,4-dihydro-1H-pyrano[4,3-c]pyridin-4-yl)imidazo[1,5-a]quinoxaline-8-carboxamide], the IC50 stood at 25.7 nM in assay [1] (Homo sapiens, HCT-116, 192 h) and 1410 nM in assay [2] (Homo sapiens, HCT-116, 192 h).

In the case of `CN(C(=O)c1ccc2nc(N)c3cnc(C4CC4)n3c2c1)[C@@H]1COc2cc(C(F)(F)F)ccc21` [Example 118, (S)-4-amino-1-cyclopro pyl-N-methyl-N-(6-(trifluoromethyl)-2,3-dihydrobenzofuran-3-yl)imida zo[1,5-a]quinoxaline-8-carboxamide], the half-inhibitory concentration (IC50) was 2930 nM in assay [1] (Homo sapiens, HCT-116, 192 h) and over 10000 nM in assay [2] (Homo sapiens, HCT-116, 192 h).

With `CN(C(=O)c1ccc2nc(N)c3cncn3c2n1)[C@@H]1COc2cc(C(F)(F)F)ccc21` [Example 30, (S)-6-amino-N-methy 1-N-(6-(trifluoromethy 1)-2,3-dihydrobenzofuran-3-yl)imidazo[1,5-a]pyrido[3,2-e]pyrazine-2-carboxamide], the IC50 is 2090 nM in assay [1] (Homo sapiens, HCT-116, 192 h) and over 10000 nM in assay [2] (Homo sapiens, HCT-116, 192 h).

Consider `CN(C(=O)c1ccc2nc(N)c3cncn3c2c1)[C@@H]1COc2cc(-c3cnn(C)c3)ccc21` [Example 2, (S)-4-amino-N-methy 1-N-(6-(1-methyl-1H-pyrazol-4-yl)-2,3-dihydrobenzofuran-3-yl)i midazo[1,5-a]quinoxa line-8-carboxamide], for which the 50% inhibitory concentration (IC50) in assay [1] (Homo sapiens, HCT-116, 192 h) worked out at 61 nM; in assay [2] (Homo sapiens, HCT-116, 192 h), 6670 nM.

Regarding `Nc1nc2ccc(C(=O)N(C3CC3)C3COc4cc(Br)ccc43)cc2n2cncc12` (stereo not drawn) [Example 74, 4-amino-N-(6-bromo-2,3-dihydrobenzofuran-3-yl)-N-cyclopropyl imidazo[1,5-a]quinox aline-8-carboxamide], the IC50 in assay [1] was 148 nM; in assay [2] it was 5990 nM.

Take `C[C@H]1OC[C@@H](N(C)C(=O)c2ccc3nc(N)c4cncn4c3c2)c2cc(F)ccc21` (single isomer, unassigned) [Example 100]: the IC50 is 68.3 nM in assay [1] (Homo sapiens, HCT-116, 192 h) and 3580 nM in assay [2] (Homo sapiens, HCT-116, 192 h).

Take “4-amino-N-methyl-N-(8-(trifluoromethyl)-1, 3,4,5-tetrahydrobenzo [c]oxepin-5-yl)imidaz o[1,5-a]quinoxaline-8 -carboxamide [Example 44]”: the concentration for half-maximal inhibition (IC50) in assay [1] is 310 nM; in assay [2], over 10000 nM.

In the case of `CN(C(=O)c1ccc2nc(N)c3cncn3c2c1)[C@@H]1CCOc2cc(C(F)(F)F)ccc21` [Example 25, (R)-4-amino-N-methy 1-N-(7-(trifluoromethy 1)chroman-4-yl)imida zo[1,5-a]quinoxaline-8-carboxamide], the IC50 in assay [1] (Homo sapiens, HCT-116, 192 h) was 177 nM; in assay [2] (Homo sapiens, HCT-116, 192 h), over 10000 nM.

As for `CN(C(=O)c1ccc2nc(N)c3cncn3c2c1)[C@H]1COc2cc(C(F)(F)F)ccc21` [Example 51, (R)-4-amino-N-methy 1-N-(6-(trifluoromethy 1)-2,3-dihydrobenzofuran-3-yl)imidazo[1,5-a]quinoxaline-8-carbo xamide], the IC50 in assay [1] (Homo sapiens, HCT-116, 192 h) is 213 nM; in assay [2] (Homo sapiens, HCT-116, 192 h) it was 5860 nM.

For `Cc1cc(C(=O)N(C)[C@@H]2COc3cc(C(F)(F)F)ccc32)cc2c1nc(N)c1cncn12` [Example 37, (S)-4-amino-N,6-dime thyl-N-(6-(trifluoromethyl)-2,3-dihydrobenzofuran-3-yl)imidazo[1 ,5-a]quinoxaline-8-car boxamide], the half-maximal inhibitory concentration (IC50) was over 3000 nM in assay [1] (Homo sapiens, HCT-116, 192 h) and over 10000 nM in assay [2] (Homo sapiens, HCT-116, 192 h).

`CC1OC[C@@H](N(C)C(=O)c2ccc3nc(N)c4cncn4c3c2)c2cccnc21` (stereo partly drawn) [Example 108, 4-amino-N-methyl-N-((5S)-8-methyl-5,8-di hydro-6H-pyrano[3,4-b]pyridin-5-yl)imidaz o[1,5-a]quinoxaline-8-carboxamide]: the IC50 in assay [1] (Homo sapiens, HCT-116, 192 h) is 121 nM; in assay [2] (Homo sapiens, HCT-116, 192 h), over 10000 nM.

Regarding `CN(C(=O)c1cc2c(cc1F)nc(N)c1cncn12)C1CCOc2cc(C(F)(F)F)cnc21` (stereo not drawn) [Example 110, 4-amino-7-fluoro-N-methyl-N-(7-(trifluoromethyl)-3,4-dihydro-2 H-pyrano[3,2-b]pyridin-4-yl)imidazo[1,5-a] quinoxaline-8-carbox amide], the IC50 is over 3000 nM in assay [1] (Homo sapiens, HCT-116, 192 h) and over 10000 nM in assay [2] (Homo sapiens, HCT-116, 192 h).

As to `CN(C(=O)c1ccc2nc(N)c3c(Br)ncn3c2c1)[C@@H]1COc2cc(C(F)(F)F)ccc21` [Example 127, (S)-4-amino-3-bromo-N-methyl-N-(6-(trifluoromethyl)-2,3-dihydrobenzofuran-3-yl)imidazo[1,5-a]quinoxaline-8-carboxamide], the half-maximal inhibitory concentration (IC50) was determined as 100 nM in assay [1] (Homo sapiens, HCT-116, 192 h) and 9900 nM in assay [2] (Homo sapiens, HCT-116, 192 h).

As for `C[C@@H]1OC[C@@H](N(C)C(=O)c2ccc3nc(N)c4cncn4c3c2)c2cc(F)ccc21` (single isomer, unassigned) [Example 99], the IC50 in assay [1] (Homo sapiens, HCT-116, 192 h) worked out at 928 nM; in assay [2] (Homo sapiens, HCT-116, 192 h), 7130 nM.

As for `CN(C(=O)c1ccc2nc(N)n3cncc3c2c1)[C@@H]1COc2cc(C(F)(F)F)ccc21` [Example 49, (S)-5-amino-N-methy 1-N-(6-(trifluoromethy 1)-2,3-dihydrobenzofuran-3-yl)imidazo[1,5-c]quinazoline-9-carbo xamide], the IC50 is 589 nM in assay [1] (Homo sapiens, HCT-116, 192 h) and over 10000 nM in assay [2] (Homo sapiens, HCT-116, 192 h).

As for `CN(C(=O)c1ccc2nc(N)c3cnc(Br)n3c2c1)[C@@H]1COc2cc(C(F)(F)F)ccc21` [Example 111, (S)-4-amino-1-bromo-N-methyl-N-(6-(trifluoromethyl)-2,3-dihydrobenzofuran-3-yl)imidazo[1,5-a]quinoxaline-8-carboxamide], the half-inhibitory concentration (IC50) in assay [1] (Homo sapiens, HCT-116, 192 h) is 500 nM; in assay [2] (Homo sapiens, HCT-116, 192 h) it was over 10000 nM.

Take `CN(C(=O)c1cc2c(cc1F)nc(N)c1cncn12)[C@@H]1COc2cc(-c3cscn3)ccc21` [Example 46, (S)-4-amino-7-fluoro-N-methyl-N-(6-(thiazol-4-yl)-2,3-dihydrobenzofuran-3-yl)imidaz o[1,5-a]quinoxaline-8-carboxamide]: the half-maximal inhibitory concentration (IC50) in assay [1] (Homo sapiens, HCT-116, 192 h) was 52.2 nM; in assay [2] (Homo sapiens, HCT-116, 192 h), over 10000 nM.

Take `Cc1ncn2c1c(N)nc1ccc(C(=O)N(C)[C@@H]3COc4ccc(F)cc43)cc12` [Example 64, (S)-4-amino-N-(5-fluoro-2,3-dihydrobenzofuran-3-yl)-N,3-dimet hylimidazo[1,5-a]quin oxaline-8-carboxamide]: the half-maximal inhibitory concentration (IC50) in assay [1] (Homo sapiens, HCT-116, 192 h) is 278 nM; in assay [2] (Homo sapiens, HCT-116, 192 h), over 20000 nM.

Take `CN(C(=O)c1ccc2nc(N)c3cncn3c2c1)[C@@H]1COc2cc(F)ccc21` [Example 68, (S)-4-amino-N-(6-fluoro-2,3-dihydrobenzofuran-3-yl)-N-methyli midazo[1,5-a]quinoxa line-8-carboxamide]: the IC50 is 382 nM in assay [1] (Homo sapiens, HCT-116, 192 h) and 8570 nM in assay [2] (Homo sapiens, HCT-116, 192 h).

Turning to `C[C@@H]1OC[C@@H](N(C)C(=O)c2cc3c(cn2)nc(N)c2cncn23)c2ccc(C(F)(F)F)cc21` (single isomer, unassigned) [Example 97], the 50% inhibitory concentration (IC50) in assay [1] (Homo sapiens, HCT-116, 192 h) stood at 29.8 nM; in assay [2] (Homo sapiens, HCT-116, 192 h), 1550 nM.

As for `CN(C(=O)c1ccc2nc(N)c3cncn3c2c1)[C@@H]1COc2cc(P(C)(C)=O)ccc21` [Example 20, (S)-4-amino-N-(6-(dimethylphosphoryl)-2,3-dihydrobenzofuran-3-yl)-N-methylimidaz o[1,5-a]quinoxaline-8-carboxamide], the half-maximal inhibitory concentration (IC50) in assay [1] (Homo sapiens, HCT-116, 192 h) is over 3000 nM; in assay [2] (Homo sapiens, HCT-116, 192 h) it was over 10000 nM.

Take `CC1OC[C@@H](N(C)C(=O)c2cc3c(cn2)nc(N)c2cncn23)c2ccc(F)cc21` (stereo partly drawn) [Example 62, 4-amino-N-((4S)-7-fluoro-1-methylisochroman-4-yl)-N-methyli midazo[1,5-a]pyrido[3,4-e]pyrazine-8-carb oxamide]: the IC50 amounted to 19.7 nM in assay [1] (Homo sapiens, HCT-116, 192 h) and 3710 nM in assay [2] (Homo sapiens, HCT-116, 192 h).

With `Nc1nc2cc(F)c(C(=O)N(C3CC3)C3CCOc4cc(-c5cncc(C(F)(F)F)c5)cnc43)cc2n2cncc12` (stereo not drawn) [Example 59, 4-amino-N-cyclopropyl-7-fluoro-N-(7-(5-(trifluoromethyl)pyridin-3-yl)-3,4-dihydro-2H-pyrano[3,2-b]pyridin-4-yl)imidazo [1,5-a]quinoxaline-8-carboxamide], the half-inhibitory concentration (IC50) in assay [1] (Homo sapiens, HCT-116, 192 h) was 711 nM; in assay [2] (Homo sapiens, HCT-116, 192 h), over 10000 nM.
